This note sets out measurements from PubChem BioAssay AID330 (DTP/NCI, 2004).

Structures are written as SMILES. Values joined by “and” are separate entries in the source; they are usually repeats but may differ in a detail not shown here. Equal entries are not always repeated. Toxic doses and inconclusive results are not listed.

This experiment deals with P388 leukemia ip, CD2F1 mice, survival T/C. Nature of the experiment: NCI In Vivo Anticancer Drug Screen. Data for tumor model P388 Leukemia (intraperitoneal) in CD2F1 (CDF1) mice. Particulars: endpoint: median survival time, higher = longer survival. Put shortly: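 Mice carrying the transplanted tumor received test compound or vehicle. Survival was recorded in each group, and the value is the treated-group measurement divided by that of the vehicle-treated control group.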

The mark [1] stands for this setting: dose: 50.0 mg/kg/injection, schedule: Q01DX005 (ip), vehicle: saline with Tween-80.
Setting [2] is: dose: 100.0 mg/kg/injection, schedule: Q01DX005 (ip), vehicle: saline with Tween-80.
The mark [3] stands for this setting: dose: 200.0 mg/kg/injection, schedule: Q01DX005 (ip), vehicle: saline with Tween-80.
Where [4] appears, read: dose: 50.0 mg/kg/injection, schedule: Q01DX009 (ip), vehicle: Klucel (hydroxypropylcellulose) (HPC).
Setting [5] is: dose: 50.0 mg/kg/injection, schedule: Q01DX009 (ip), vehicle: saline.
[6] abbreviates: dose: 100.0 mg/kg/injection, schedule: Q01DX009 (ip), vehicle: saline.
[7] abbreviates: dose: 60.0 mg/kg/injection, schedule: Q01DX005 (ip), vehicle: saline with Tween-80.
The mark [8] stands for this setting: dose: 50.0 mg/kg/injection, schedule: Q01DX005 (ip), vehicle: Klucel (hydroxypropylcellulose) (HPC).
[9] abbreviates: dose: 100.0 mg/kg/injection, schedule: Q01DX005 (ip), vehicle: Klucel (hydroxypropylcellulose) (HPC).
[10] abbreviates: dose: 200.0 mg/kg/injection, schedule: Q01DX005 (ip), vehicle: Klucel (hydroxypropylcellulose) (HPC).
The mark [11] stands for this setting: dose: 100.0 mg/kg/injection, schedule: Q04DX003 (ip), vehicle: saline with Tween-80.
Where [12] appears, read: dose: 200.0 mg/kg/injection, schedule: Q04DX003 (ip), vehicle: saline with Tween-80.
Where [13] appears, read: dose: 400.0 mg/kg/injection, schedule: Q04DX003 (ip), vehicle: saline with Tween-80.
Where [14] appears, read: dose: 60.0 mg/kg/injection, schedule: Q01DX005 (ip), vehicle: saline.
Where [15] appears, read: dose: 120.0 mg/kg/injection, schedule: Q01DX005 (ip), vehicle: saline.
The mark [16] stands for this setting: dose: 25.0 mg/kg/injection, schedule: Q01DX009 (ip), vehicle: saline.

For `Cc1cc(C)c2nc(C)c(C)[n+]([O-])c2c1`, the T/C was 101 % of control under setting [1], 100 % of control under setting [2] and 100 % of control under setting [3].

In the case of `CCOC(=O)C(c1ccccc1)N(CCCN(CC)CC)c1ccccc1` (configuration not stated), the T/C (dose: 12.5 mg/kg/injection, schedule: Q01DX005 (ip), vehicle: saline) is 108 % of control; the T/C (dose: 25.0 mg/kg/injection, schedule: Q01DX005 (ip), vehicle: saline) is 108 % of control; the T/C under setting [1] is 100 % of control; the T/C (dose: 50.0 mg/kg/injection, schedule: Q01DX005 (ip), vehicle: saline) was 101 % of control.

As to `Fc1ccc(CSC(=S)Nc2ccc(F)c(F)c2)cc1`, the T/C reads like this: under setting [4], 111 % of control; under setting [5], 87 % of control; under setting [6], 107 % of control; (dose: 200.0 mg/kg/injection, schedule: Q01DX009 (ip), vehicle: saline) 108 % of control.

In the case of `O=C(c1ccccc1)N1OCCCc2ccccc21`, the T/C is 104 % of control under setting [7]; 96 % of control (dose: 120.0 mg/kg/injection, schedule: Q01DX005 (ip), vehicle: saline with Tween-80); 91 % of control (dose: 240.0 mg/kg/injection, schedule: Q01DX005 (ip), vehicle: saline with Tween-80).

In the case of `Clc1cc(=Nc2ccccc2)n2ccccc2n1`, the T/C is 96 % of control (dose: 60.0 mg/kg/injection, schedule: Q01DX005 (ip), vehicle: Klucel (hydroxypropylcellulose) (HPC)); 99 % of control (dose: 120.0 mg/kg/injection, schedule: Q01DX005 (ip), vehicle: Klucel (hydroxypropylcellulose) (HPC)); 97 % of control (dose: 240.0 mg/kg/injection, schedule: Q01DX005 (ip), vehicle: Klucel (hydroxypropylcellulose) (HPC)).

Regarding `COC(=O)C(CSCc1ccccc1)NC(=O)CCNC(=O)c1ccccc1` (configuration not stated), the T/C runs as follows: (dose: 12.5 mg/kg/injection, schedule: Q01DX009 (ip), vehicle: distilled water + Tween-80) 100 % of control; (dose: 25.0 mg/kg/injection, schedule: Q01DX009 (ip), vehicle: distilled water + Tween-80) 94 % of control; (dose: 50.0 mg/kg/injection, schedule: Q01DX009 (ip), vehicle: distilled water + Tween-80) 98 % of control; (dose: 100.0 mg/kg/injection, schedule: Q01DX009 (ip), vehicle: distilled water + Tween-80) 91 % of control; (dose: 200.0 mg/kg/injection, schedule: Q01DX009 (ip), vehicle: distilled water + Tween-80) 111 % of control.

`NCCNCC[OH2+].NCCNCC[OH2+].O=[N+]([O-])[O-].[Cu+2]`: the T/C (dose: 3.12 mg/kg/injection, schedule: Q01DX009 (ip), vehicle: Klucel (hydroxypropylcellulose) (HPC)) is 98 % of control; the T/C (dose: 6.25 mg/kg/injection, schedule: Q01DX009 (ip), vehicle: Klucel (hydroxypropylcellulose) (HPC)) is 111 % of control; the T/C (dose: 6.25 mg/kg/injection, schedule: Q04DX003 (ip), vehicle: saline) is 97 % of control; the T/C (dose: 12.5 mg/kg/injection, schedule: Q01DX009 (ip), vehicle: Klucel (hydroxypropylcellulose) (HPC)) was 93 % of control; the T/C (dose: 12.5 mg/kg/injection, schedule: Q04DX003 (ip), vehicle: saline) is 100 % of control; the T/C (dose: 25.0 mg/kg/injection, schedule: Q04DX003 (ip), vehicle: saline) was 86 % of control.

In the case of `C1CSCCCSCCCSCCCSC1`, the T/C runs as follows: under setting [4], 100 % of control; (dose: 100.0 mg/kg/injection, schedule: Q01DX009 (ip), vehicle: Klucel (hydroxypropylcellulose) (HPC)) 99 % of control; (dose: 200.0 mg/kg/injection, schedule: Q01DX009 (ip), vehicle: Klucel (hydroxypropylcellulose) (HPC)) 100 % of control.

With `N#Cc1c2c(c(N3CCCCC3)n3c1nc1ccccc13)CCC2`, the T/C by setting is: (dose: 15.0 mg/kg/injection, schedule: Q01DX005 (ip), vehicle: saline with Tween-80) 98 % of control; (dose: 30.0 mg/kg/injection, schedule: Q01DX005 (ip), vehicle: saline with Tween-80) 102 % of control; under setting [7], 91 % of control and 95 % of control.

In the case of `N=C(N)c1ccc(N=Nc2cc(N=Nc3ccc(C(=N)N)cc3)c(O)cc2O)cc1`, the T/C was 92 % of control under setting [8], 92 % of control under setting [9] and 100 % of control under setting [10].

In the case of `O=C(Nc1cccc2ccccc12)[C@H]1C[C@H]2C=C[C@@H]1C2`, the T/C under setting [11] was 95 % of control, the T/C under setting [12] was 90 % of control and the T/C under setting [13] is 113 % of control.

Take `Oc1cc2ccccc2c(-c2c(O)c(O)cc3ccccc23)c1O`: the T/C by setting is: (dose: 25.0 mg/kg/injection, schedule: Q01DX005 (ip), vehicle: saline with Tween-80) 111 % of control; under setting [1], 113 % of control; (dose: 100.0 mg/kg/injection, schedule: Q01DX001 (ip), vehicle: saline with Tween-80) 113 % of control and 115 % of control; under setting [2], 112 % of control; (dose: 200.0 mg/kg/injection, schedule: Q01DX001 (ip), vehicle: saline with Tween-80) 113 % of control and 121 % of control; (dose: 600.0 mg/kg/injection, schedule: Q01DX001 (ip), vehicle: saline with Tween-80) 124 % of control.

Take `CN1CCC(O)(c2ccccc2)C(Br)C1` (configuration not stated): the T/C is 100 % of control and 106 % of control (dose: 30.0 mg/kg/injection, schedule: Q01DX005 (ip), vehicle: saline); 100 % of control and 105 % of control and 110 % of control under setting [14]; 100 % of control and 116 % of control under setting [15].

Turning to `O=P(Oc1ccc(OP(=O)(N2CC2)N2CC2)cc1)(N1CC1)N1CC1`, the T/C is, setting by setting: (dose: 100.0 mg/kg/injection, schedule: Q01DX009 (ip), vehicle: saline with Tween-80) 154 % of control; (dose: 200.0 mg/kg/injection, schedule: Q01DX009 (ip), vehicle: saline with Tween-80) 181 % of control; under setting [12], 154 % of control; (dose: 264.0 mg/kg/injection, schedule: Q04DX003 (ip), vehicle: saline with Tween-80) 166 % of control; under setting [13], 166 % of control.

As for `Cc1ccc(NCn2c(=S)sc3ccccc32)cc1`, the T/C is, setting by setting: under setting [8], 89 % of control; under setting [9], 88 % of control; under setting [10], 98 % of control.

Regarding `CC(C)(C)C1NC(C(C)(C)C)N2C(C(C)(C)C)N12` (configuration not stated), the T/C by setting is: (dose: 100.0 mg/kg/injection, schedule: Q01DX001 (ip), vehicle: Klucel (hydroxypropylcellulose) (HPC)) 100 % of control; (dose: 200.0 mg/kg/injection, schedule: Q01DX001 (ip), vehicle: Klucel (hydroxypropylcellulose) (HPC)) 90 % of control; (dose: 400.0 mg/kg/injection, schedule: Q01DX001 (ip), vehicle: Klucel (hydroxypropylcellulose) (HPC)) 102 % of control.

As to `COC(=O)C(NC(N)=O)OC` (configuration not stated), the T/C was 105 % of control under setting [16], 100 % of control under setting [5] and 103 % of control under setting [6].

`Cc1nc2[nH]cc(-c3ccccc3)c2c(=N)n1-c1ccc(F)cc1`: the T/C by setting is: (dose: 6.25 mg/kg/injection, schedule: Q01DX005 (ip), vehicle: Klucel (hydroxypropylcellulose) (HPC)) 101 % of control; (dose: 12.5 mg/kg/injection, schedule: Q01DX005 (ip), vehicle: Klucel (hydroxypropylcellulose) (HPC)) 101 % of control; (dose: 25.0 mg/kg/injection, schedule: Q01DX005 (ip), vehicle: Klucel (hydroxypropylcellulose) (HPC)) 102 % of control.

For `CN1CCC(=C2c3ccccc3CCc3sccc32)CC1`, the T/C by setting is: (dose: 12.5 mg/kg/injection, schedule: Q01DX009 (ip), vehicle: saline) 103 % of control; under setting [16], 104 % of control; under setting [5], 101 % of control and 103 % of control; under setting [6], 108 % of control.

In the case of `CCCCCCC(=O)/C=C/C=C/c1ccccc1`, the T/C is, setting by setting: under setting [11], 100 % of control; under setting [12], 103 % of control; under setting [13], 92 % of control.

As for `Cc1nc(Nc2ccc(F)cc2)c2c(C)c[nH]c2n1`, the T/C is, setting by setting: under setting [8], 90 % of control; under setting [9], 88 % of control; under setting [10], 89 % of control.

In the case of `CN(C)CCO`, the T/C was 104 % of control under setting [14]; 100 % of control under setting [15]; 118 % of control (dose: 240.0 mg/kg/injection, schedule: Q01DX005 (ip), vehicle: saline).

As for `CCCCCCCCCCCCN(CCCCCCCCCCCC)CC(O)c1cc2c(c3ccccc13)CCCC2` (configuration not stated), the T/C was 101 % of control under setting [1], 97 % of control under setting [2] and 101 % of control under setting [3].
